Broadly, the pIC50 is the IC50 on a negative log10 scale, so that one unit is a factor of ten.

pIC50: −log10 of the molar value.

The target in the first assay is human P2X7 receptor (Homo sapiens, UniProt Q99572, R270H/Y155H). In words: Evaluation of human P2X7 receptor inhibitory activity (Yo-Pro uptake, BzATP stimulation, FLIPR TETRA). Format: cell-based. The following applies: 1321N1 cells stably expressing human P2X7 receptor; BzATP stimulation, Yo-Pro uptake; read-out: IC50 (antagonistic activity for the human P2X7 receptor). The method in brief: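 1321N1 cells stably expressing human P2X7 (T606C/G952A SNP variant), in HBSS buffer pH 7.4-7.5 with Yo-Pro, stimulated with BzATP; compound added 8 min after agonist. Fluorescence followed for 20 min on FLIPR; max-minus-min change gave % inhibition, IC50 by logistic fit.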
As to `CCc1cc2c(cc1Nc1nc(=O)c(OC)cn1Cc1ccc(Cl)cc1)CCC2` [Compound I-0195], the pIC50 is 7.59.

With `COc1cn(Cc2cccc(Cl)c2)c(Nc2cccc3[nH]c(C)cc23)nc1=O` [Compound I-0487], the pIC50 is 7.60.

On to `COc1cc(Cn2cc(OC)c(=O)nc2Nc2cccc(Cl)c2C)ccc1F` [Compound I-0698], for which the pIC50 was 7.00.

On to `COc1cn(Cc2ccc(F)c(Cl)c2)c(N[C@@H]2CCc3ccccc32)nc1=O` [Compound I-0335], for which the pIC50 was 6.77.

With `Cc1nc2cc(C)c(Nc3nc(=O)c(C)nn3Cc3cc(F)c(F)c(F)c3)cc2s1` [Compound I-1267], the pIC50 is 8.00.

Take `COc1cc(C)c(Nc2ncc(OC)c(=O)n2Cc2ccc(F)c(Cl)c2)cc1C` [Compound I-0985]: the pIC50 was 7.19.

With `COc1cn(Cc2ccc(F)c(Cl)c2)c(Nc2cc(S(C)(=O)=O)cc(C)c2C)nc1=O` [Compound I-0755], the pIC50 is 7.92.

Turning to `COc1cn(Cc2ccccc2)c(Nc2ccccc2SC)nc1=O` [Compound I-0382], the pIC50 was 6.46.

The same assay, now with this note: 1321N1 cells stably expressing human P2X7 receptor; BzATP stimulation, Yo-Pro uptake; read-out: IC50 (antagonistic activity for the human P2X7 receptor), class symbol.
As to `COc1cn(Cc2c(F)cccc2F)c(Nc2cccc(Cl)c2C)nc1=O` [Compound I-0311], the pIC50 was 6.30 to 7.00.

As to `CCc1ccccc1CNc1nc(=O)c(OC)cn1Cc1cc(F)cc(F)c1` [Compound I-0454], the pIC50 was 7.00 to 8.00.

For `Cc1ccc(N2CCCS2(=O)=O)cc1Nc1nc(=O)c(F)cn1Cc1ccccc1` [Compound I-0148], the pIC50 is 7.00 to 8.00.

For `COc1cn(Cc2ccccc2)c(Nc2cc(O)ccc2Cl)nc1=O` [Compound I-0156], the pIC50 is 6.30 to 7.00.

For `CCc1cc2c(cc1Nc1nc(=O)c(OC)cn1Cc1ccccc1)CCC2` [Compound I-0116], the negative logarithm of the IC50 (pIC50) is above 8.00.

Regarding `COc1cc(C)c(Nc2nc(=O)c(Cl)cn2Cc2cccc(Cl)c2)cc1OC` [Compound I-0346], the pIC50 was above 8.00.

`CCc1ccccc1CNc1nc(=O)c(OC)cn1Cc1ccccc1` [Compound I-0114]: the pIC50 is 6.30 to 7.00.

For the compound `CCc1cc(OC)ccc1Nc1nc(=O)c(OC)cn1Cc1ccc(F)c(F)c1` [Compound I-0264], the pIC50 is above 8.00.

With `COc1ccc(Cl)c(Nc2nc(=O)c(OC)cn2Cc2ccccc2)c1` [Compound I-0152], the negative logarithm of the IC50 (pIC50) was 6.30 to 7.00.

For `Cc1c(Cl)cccc1Nc1nc(=O)c(OCC(F)(F)F)cn1Cc1ccccc1` [Compound I-0016], the pIC50 is 7.00 to 8.00.

`CCc1c(Nc2nc(=O)c(OC)cn2Cc2ccccc2)cc(OC)cc1OC` [Compound I-0361]: the pIC50 was above 8.00.

As to `CCc1cc2c(cc1Nc1nc(=O)c(OC)cn1Cc1cccc(F)c1)CCC2` [Compound I-0179], the negative logarithm of the IC50 (pIC50) was above 8.00.

For `COc1cccc(Nc2nc(=O)c(OC)cn2Cc2ccccc2)c1C` [Compound I-0007], the negative logarithm of the IC50 (pIC50) was 7.00 to 8.00.

For the compound `COc1cccc(Nc2nc(=O)c(OC)cn2Cc2ccccc2)c1Cl` [Compound I-0115], the pIC50 was 7.00 to 8.00.

Consider `COc1cn(Cc2ccccc2)c(Nc2cccc(Oc3ccccc3)c2C)nc1=O` [Compound I-0138], for which the pIC50 is 6.00 to 6.30.

On to `Cc1c(Cl)cccc1NC(=O)Cc1cn(Cc2ccccc2)c(Nc2cccc(Cl)c2C)nc1=O` [Compound I-0238], for which the pIC50 is 6.30 to 7.00.

Take `COc1cn(Cc2ccc(F)c(F)c2)c(Nc2cc(Cl)c(Cl)cc2C)nc1=O` [Compound I-0518]: the pIC50 was 7.00 to 8.00.

On to `COc1cn(Cc2ccccc2)c(Nc2cc(Cl)ccc2Cl)nc1=O` [Compound I-0080], for which the pIC50 is 6.30 to 7.00.

For the compound `COc1cn(Cc2ccc(F)c(F)c2)c(Nc2cccc(C)c2Cl)nc1=O` [Compound I-0482], the negative logarithm of the IC50 (pIC50) was above 8.00.

With `COc1cn(Cc2ccccc2)c(NCc2ccccc2C)nc1=O` [Compound I-0102], the negative-log IC50 (pIC50) was 6.30 to 7.00.

With `COc1cn(Cc2ccc(F)c(Cl)c2)c(Nc2cc3c(cc2C)OCCO3)nc1=O` [Compound I-0292], the pIC50 is 7.00 to 8.00.

Turning to `COc1cc(C)cc(Nc2nc(=O)c(OC)cn2Cc2cccc(Cl)c2)c1C` [Compound I-0428], the pIC50 was above 8.00.

Staying with this assay, now noted: antagonistic activity for the human P2X7 receptor; read-out: IC50.
As to `COc1cc(Nc2nc(=O)c(F)cn2Cc2ccc(F)c(F)c2)c(C)cc1Cl` [Compound I-0993], the pIC50 is above 8.00.

With `COc1cn(Cc2ccc(F)cc2)c(Nc2cc(Oc3ccccn3)ccc2C)nc1=O` [Compound I-0898], the pIC50 is 7.00 to 8.00.

Take `COc1cccc(Nc2nc(=O)c(OC)cn2Cc2cccc(F)c2)c1C` [Compound I-0642]: the negative-log IC50 (pIC50) was above 8.00.

In the case of `Cc1c(Nc2nc(=O)ccn2Cc2cc(F)c(F)c(F)c2)ccc2[nH]ccc12` [Compound I-1169], the pIC50 is above 8.00.

For the compound `Cc1cc(S(C)(=O)=O)cc(Nc2nc(=O)c(F)cn2Cc2cc(F)c(F)c(F)c2)c1C` [Compound I-1212], the pIC50 is above 8.00.

For `COc1cn(Cc2cc(F)cc(F)c2)c(Nc2cc3[nH]ccc3cc2C)nc1=O` [Compound I-0620], the pIC50 was above 8.00.

For the compound `CCOc1cn(Cc2ccc(F)c(Cl)c2)c(Nc2cc(C)cc(OC)c2C)nc1=O` [Compound I-0716], the pIC50 is above 8.00.

For the compound `COc1cn(Cc2cc(F)cc(F)c2)c(Nc2cc(Cl)ccc2C)nc1=O` [Compound I-0593], the pIC50 was 7.00 to 8.00.

For `Cc1ccc(N2CCCC2=O)cc1Nc1nc(=O)c(Cl)cn1Cc1cc(F)cc(F)c1` [Compound I-0701], the pIC50 was above 8.00.

On to `COc1ccc(Nc2cc(=O)c(OC)cn2Cc2ccc(F)c(Cl)c2)c(C)c1` [Compound I-0944], for which the pIC50 is 6.30 to 7.00.

In the case of `COc1cc(C)c(Nc2nc(=O)c(C)c(C)n2Cc2cc(F)cc(F)c2)cc1OC` [Compound I-1135], the negative-log IC50 (pIC50) was 7.00 to 8.00.

Consider `Cc1ccc(-c2ncco2)cc1Nc1nc(=O)c(F)cn1Cc1cc(F)cc(F)c1` [Compound I-0851], for which the pIC50 is above 8.00.

Take `COc1ccc(Cl)c(Nc2nc(=O)c(OC)cn2Cc2cc(F)cc(F)c2)c1` [Compound I-0639]: the pIC50 is 7.00 to 8.00.

Regarding `COc1cc(C)c(Nc2nc(=O)c(OC)cn2Cc2cccc(Cl)c2)cc1Cl` [Compound I-0671], the pIC50 was above 8.00.

As for `COc1cn(Cc2ccc(F)c(Cl)c2)c(Nc2cc3c(cc2C)COC3)nc1=O` [Compound I-0906], the pIC50 was 7.00 to 8.00.

On to `COc1cn(Cc2ccc(F)c(Cl)c2)c(Nc2cc3c(cc2C)OCC3)nc1=O` [Compound I-0864], for which the pIC50 was above 8.00.

For the compound `COc1ccc(Nc2nc(=O)c(F)cn2Cc2cc(F)c(F)c(F)c2)c(C)n1` [Compound I-1036], the pIC50 is 7.00 to 8.00.

Turning to `COc1cn(Cc2cc(F)cc(Cl)c2)c(Nc2cc(OC(F)F)ccc2C)nc1=O` [Compound I-0872], the pIC50 is 7.00 to 8.00.

For `CCOc1cn(Cc2ccccc2)c(Nc2cc(C)cc(OC)c2C)nc1=O` [Compound I-0717], the pIC50 is above 8.00.

For the compound `COc1cn(Cc2ccc(F)c(F)c2)c(Nc2cc(N3CCOCC3)ccc2C)nc1=O` [Compound I-0736], the pIC50 was 7.00 to 8.00.

In the case of `COc1cn(Cc2ccc(F)c(Cl)c2)c(Nc2cc(OC(F)F)ccc2C)nc1=O` [Compound I-0871], the pIC50 was 7.00 to 8.00.

Take `CCc1cc(F)c(OC)cc1Nc1nc(=O)c(OC)cn1Cc1ccc(F)c(Cl)c1` [Compound I-0814]: the pIC50 was above 8.00.

Turning to `COc1cn(Cc2cc(F)c(F)c(F)c2)c(Nc2cc3nc(C)sc3cc2C)nc1=O` [Compound I-0760], the pIC50 was 7.00 to 8.00.

Regarding `CON=c1nc(Nc2cc3sc(C)nc3cc2C)n(Cc2cc(F)c(F)c(F)c2)cc1F` [Compound I-1291], the pIC50 was 6.30 to 7.00.

With `COc1ccc(Nc2nc(=O)c(F)cn2Cc2cc(F)cc(F)c2)c(C)n1` [Compound I-1037], the pIC50 is 7.00 to 8.00.

As to `Cc1cc(Nc2nc(=O)c(F)cn2Cc2cc(F)c(F)c(F)c2)c(C)cc1Cl` [Compound I-1207], the pIC50 was above 8.00.

With `COc1cn(Cc2ccc(F)c(F)c2)c(Nc2cc(OC(F)F)c(C)cc2C)nc1=O` [Compound I-0878], the negative logarithm of the IC50 (pIC50) was above 8.00.

Turning to `CCc1cc(OC)ccc1Nc1nc(=O)c(F)cn1Cc1cc(F)cc(F)c1` [Compound I-1214], the pIC50 is above 8.00.

Take `COc1cn(Cc2ccccc2)c(Nc2cc(OC(F)F)ccc2C)nc1=O` [Compound I-0870]: the pIC50 is 7.00 to 8.00.

In the case of `Cc1nc2ccc(Nc3nc(=O)c(F)cn3Cc3cc(F)c(F)c(F)c3)c(C)c2s1` [Compound I-1199], the pIC50 is above 8.00.

Consider `COc1cc(Nc2nc(=O)c(F)cn2Cc2cc(F)c(F)c(F)c2)c(C)cc1Cl` [Compound I-1006], for which the pIC50 was above 8.00.

`COc1cn(Cc2cc(F)c(F)c(F)c2)c(Nc2cc(C)c(OC(F)(F)F)cc2C)nc1=O` [Compound I-0925]: the pIC50 is 7.00 to 8.00.

As for `COc1cc(Cl)c(Nc2nc(=O)c(F)cn2Cc2cc(F)c(F)c(F)c2)cc1OC` [Compound I-1187], the pIC50 was above 8.00.

On to `COc1cn(Cc2cc(F)c(F)c(F)c2)c(Nc2cc(-n3cccc3)ccc2C)nc1=O` [Compound I-0894], for which the negative logarithm of the IC50 (pIC50) was above 8.00.

For the compound `CCOc1cc(C)c(Nc2nc(=O)c(F)cn2Cc2cc(F)cc(F)c2)cc1F` [Compound I-1061], the pIC50 was 7.00 to 8.00.

As for `COCc1ccc(C)c(Nc2nc(=O)c(F)cn2Cc2ccc(F)c(Cl)c2)c1` [Compound I-1085], the negative logarithm of the IC50 (pIC50) is above 8.00.

Take `COc1cn(Cc2ccc(F)c(Cl)c2)c(Nc2cc(Cl)cc3[nH]ccc23)nc1=O` [Compound I-0819]: the pIC50 was 7.00 to 8.00.

For the compound `CON=c1nc(Nc2cc(C)ccc2C)n(Cc2cc(F)c(F)c(F)c2)cc1F` [Compound I-1292], the pIC50 was 6.30 to 7.00.

Take `Cc1nc2cc(Cl)c(Nc3nc(=O)c(F)cn3Cc3cc(F)cc(F)c3)cc2o1` [Compound I-1075]: the pIC50 is above 8.00.

Consider `COc1cn(Cc2cc(F)cc(F)c2)c(Nc2cc(-c3cccn(C)c3=O)ccc2C)nc1=O` [Compound I-0589], for which the pIC50 was above 8.00.

As for `COc1ccc(C)c(Nc2nc(=O)c(C#N)cn2Cc2cc(F)cc(F)c2)c1` [Compound I-1123], the pIC50 is 6.30 to 7.00.
